Assay results taken from ChEMBL document CHEMBL3045892, “Synthesis and evaluation of in vitro antimicrobial activity of novel 2,3-disubstituted-4-thiazolidinones from fatty acid hydrazides” (2013).
Converted amounts (≈) assume the structure as drawn.

Legend:
Type in all cases: functional
[1] = tested on: Trichophyton mentagrophytes; test: Antifungal activity against Trichophyton mentagrophytes incubated for 48 hr followed by subculturing measured after 48 hr
Aspergillus fumigatus [2] = test: Antifungal activity against Aspergillus fumigatus after 48 hr
Talaromyces marneffei [3] = test: Antifungal activity against Talaromyces marneffei after 48 hr
Escherichia coli [4] = test: Antibacterial activity against Escherichia coli ATCC 25922 incubated for 24 hr followed by subculturing measured after 18 to 24 hr
Candida albicans [5] = test: Antifungal activity against Candida albicans after 48 hr
Aspergillus fumigatus [6] = test: Antifungal activity against Aspergillus fumigatus by disk diffusion method
Candida albicans [7] = test: Antifungal activity against Candida albicans by disk diffusion method
Streptococcus pyogenes [8] = test: Antibacterial activity against Streptococcus pyogenes incubated for 24 hr followed by subculturing measured after 18 to 24 hr
Klebsiella pneumoniae [9] = test: Antibacterial activity against Klebsiella pneumoniae clinical isolate incubated for 24 hr followed by subculturing measured after 18 to 24 hr
Talaromyces marneffei [10] = test: Antifungal activity against Talaromyces marneffei by disk diffusion method
Streptococcus pyogenes [11] = test: Antibacterial activity against Streptococcus pyogenes after 24 hr by broth dilution method
Candida albicans [12] = test: Antifungal activity against Candida albicans incubated for 48 hr followed by subculturing measured after 48 hr
Streptococcus pyogenes [13] = test: Antibacterial activity against Streptococcus pyogenes after 24 hr by disk diffusion method
Talaromyces marneffei [14] = test: Antifungal activity against Talaromyces marneffei incubated for 48 hr followed by subculturing measured after 48 hr
Aspergillus fumigatus [15] = test: Antifungal activity against Aspergillus fumigatus incubated for 48 hr followed by subculturing measured after 48 hr
Klebsiella pneumoniae [16] = test: Antibacterial activity against Klebsiella pneumoniae clinical isolate after 24 hr by disk diffusion method
[17] = tested on: Trichophyton mentagrophytes; test: Antifungal activity against Trichophyton mentagrophytes after 48 hr
Pseudomonas aeruginosa [18] = test: Antibacterial activity against Pseudomonas aeruginosa ATCC 27853 after 24 hr by disk diffusion method
Pseudomonas aeruginosa [19] = test: Antibacterial activity against Pseudomonas aeruginosa ATCC 27853 after 24 hr by broth dilution method; details: ATCC 27853, 24 h
Klebsiella pneumoniae [20] = test: Antibacterial activity against Klebsiella pneumoniae clinical isolate after 24 hr by broth dilution method
[21] = tested on: Trichophyton mentagrophytes; test: Antifungal activity against Trichophyton mentagrophytes by disk diffusion method
Escherichia coli [22] = test: Antibacterial activity against Escherichia coli ATCC 25922 after 24 hr by disk diffusion method
Escherichia coli [23] = test: Antibacterial activity against Escherichia coli ATCC 25922 after 24 hr by broth dilution method; details: ATCC 25922, 24 h
Pseudomonas aeruginosa [24] = test: Antibacterial activity against Pseudomonas aeruginosa ATCC 27853 incubated for 24 hr followed by subculturing measured after 18 to 24 hr
Escherichia coli [25] = test: Antibacterial activity against Escherichia coli ATCC 25922 at 30 uig/disk after 24 hr by disk diffusion method
Pseudomonas aeruginosa [26] = test: Antibacterial activity against Pseudomonas aeruginosa ATCC 27853 at 30 ug/disk after 24 hr by disk diffusion method; details: ATCC 27853, 24 h, read-out: DIZ
Staphylococcus aureus [27] = test: Antibacterial activity against methicillin-resistant Staphylococcus aureus at 30 ug/disk after 24 hr by disk diffusion method; details: read-out: DIZ
Klebsiella pneumoniae [28] = test: Antibacterial activity against Klebsiella pneumoniae clinical isolate at 30 ug/disk after 24 hr by disk diffusion method; details: read-out: DIZ
Streptococcus pyogenes [29] = test: Antibacterial activity against Streptococcus pyogenes at 30 ug/disk after 24 hr by disk diffusion method; details: read-out: DIZ
Staphylococcus aureus [30] = test: Antibacterial activity against methicillin-resistant Staphylococcus aureus after 24 hr by broth dilution method
Staphylococcus aureus [31] = test: Antibacterial activity against methicillin-resistant Staphylococcus aureus incubated for 24 hr followed by subculturing measured after 18 to 24 hr

Row | SMILES | MIC (Aspergillus fumigatus [2]) [µg/mL] | MIC (Talaromyces marneffei [3]) [µg/mL] | MIC (Candida albicans [5]) [µg/mL] | MIC (Streptococcus pyogenes [11]) [µg/mL] | MIC [17] [µg/mL] | MIC (Pseudomonas aeruginosa [19]) [µg/mL] | MIC (Klebsiella pneumoniae [20]) [µg/mL] | MIC (Escherichia coli [23]) [µg/mL] | MFC [1] [µg/mL] | MBC (Escherichia coli [4]) [µg/mL] | diameter of the inhibition zone (DIZ) (Aspergillus fumigatus [6]) [mm] | diameter of the inhibition zone (DIZ) (Candida albicans [7]) [mm] | MBC (Streptococcus pyogenes [8]) [µg/mL] | MBC (Klebsiella pneumoniae [9]) [µg/mL] | diameter of the inhibition zone (DIZ) (Talaromyces marneffei [10]) [mm] | MFC (Candida albicans [12]) [µg/mL] | MFC (Talaromyces marneffei [14]) [µg/mL] | MFC (Aspergillus fumigatus [15]) [µg/mL] | diameter of the inhibition zone (DIZ) [21] [mm] | MBC (Pseudomonas aeruginosa [24]) [µg/mL] | further results
1 | CCCCCC[C@@H](O)C/C=C\CCCCCCCC(=O)NN1C(=O)CSC1c1ccc(Cl)cc1 (some centres not stated) | 25 (≈ 49.1 µM) | 25 (≈ 49.1 µM) | 25 (≈ 49.1 µM) | 50 (≈ 98.2 µM) | 25 (≈ 49.1 µM) | 50 (≈ 98.2 µM) | 25 (≈ 49.1 µM) | 50 (≈ 98.2 µM) | 50 (≈ 98.2 µM) | > 100 | 20.6 | 23.7 | 100 (≈ 196 µM) | 100 (≈ 196 µM) | 14.4 | 50 (≈ 98.2 µM) | 100 (≈ 196 µM) | 50 (≈ 98.2 µM) | 18.2 | 100 (≈ 196 µM) | diameter of the inhibition zone (DIZ) (Streptococcus pyogenes [13]): 17.1 mm; diameter of the inhibition zone (DIZ) (Klebsiella pneumoniae [16]): 14.5 mm; diameter of the inhibition zone (DIZ) (Pseudomonas aeruginosa [18]): 14.1 mm; diameter of the inhibition zone (DIZ) (Escherichia coli [22]): 14.5 mm
2 | CCCCCCCC/C=C\CCCCCCCC(=O)NN1C(=O)CSC1c1ccc(Cl)cc1 (configuration not stated) | 12.5 (≈ 25.3 µM) | 25 (≈ 50.7 µM) | 12.5 (≈ 25.3 µM) | 25 (≈ 50.7 µM) | 25 (≈ 50.7 µM) | 50 (≈ 101 µM) | 25 (≈ 50.7 µM) | 25 (≈ 50.7 µM) | 50 (≈ 101 µM) | 100 (≈ 203 µM) | 21.4 | 24.2 | 100 (≈ 203 µM) | 50 (≈ 101 µM) | 14.1 | 50 (≈ 101 µM) | 50 (≈ 101 µM) | 50 (≈ 101 µM) | 17.6 | 100 (≈ 203 µM) | diameter of the inhibition zone (DIZ) (Streptococcus pyogenes [13]): 18.1 mm; diameter of the inhibition zone (DIZ) (Klebsiella pneumoniae [16]): 17.1 mm; diameter of the inhibition zone (DIZ) (Pseudomonas aeruginosa [18]): 19.9 mm; diameter of the inhibition zone (DIZ) (Escherichia coli [22]): 17.6 mm
3 | O=C(N[C@H](CO)[C@H](O)c1ccc([N+](=O)[O-])cc1)C(Cl)Cl [CHLORAMPHENICOL] |  |  |  | 12.5 (≈ 38.7 µM) |  | 12.5 (≈ 38.7 µM) | 6.25 (≈ 19.3 µM) | 6.25 (≈ 19.3 µM) |  | 12.5 (≈ 38.7 µM) |  |  | 12.5 (≈ 38.7 µM) | 25 (≈ 77.4 µM) |  |  |  |  |  | 25 (≈ 77.4 µM) | diameter of the inhibition zone (DIZ) (Escherichia coli [25]): 27 mm; zone of inhibition at 30 µg/disc (Pseudomonas aeruginosa [26]): 32 mm; zone of inhibition at 30 µg/disc (Staphylococcus aureus [27]): 22 mm; zone of inhibition at 30 µg/disc (Klebsiella pneumoniae [28]): 19 mm; zone of inhibition at 30 µg/disc (Streptococcus pyogenes [29]): 23 mm; MIC (Staphylococcus aureus [30]): 6.25 µg/mL (≈ 19.3 µM); MBC (Staphylococcus aureus [31]): 12.5 µg/mL (≈ 38.7 µM)

The remaining molecules from weak to strong by MIC (Aspergillus fumigatus [2]), led by results:

Row | MIC (Aspergillus fumigatus [2]) [µg/mL] | MIC (Talaromyces marneffei [3]) [µg/mL] | MIC (Candida albicans [5]) [µg/mL] | MIC (Streptococcus pyogenes [11]) [µg/mL] | MIC [17] [µg/mL] | MIC (Pseudomonas aeruginosa [19]) [µg/mL] | MIC (Klebsiella pneumoniae [20]) [µg/mL] | MIC (Escherichia coli [23]) [µg/mL] | SMILES | MFC [1] [µg/mL] | MBC (Escherichia coli [4]) [µg/mL] | diameter of the inhibition zone (DIZ) (Aspergillus fumigatus [6]) [mm] | diameter of the inhibition zone (DIZ) (Candida albicans [7]) [mm] | MBC (Streptococcus pyogenes [8]) [µg/mL] | MBC (Klebsiella pneumoniae [9]) [µg/mL] | diameter of the inhibition zone (DIZ) (Talaromyces marneffei [10]) [mm] | MFC (Candida albicans [12]) [µg/mL] | MFC (Talaromyces marneffei [14]) [µg/mL] | MFC (Aspergillus fumigatus [15]) [µg/mL] | diameter of the inhibition zone (DIZ) [21] [mm] | MBC (Pseudomonas aeruginosa [24]) [µg/mL] | further results
4 | 25 (≈ 49.1 µM) | 25 (≈ 49.1 µM) | 25 (≈ 49.1 µM) | 25 (≈ 49.1 µM) | 25 (≈ 49.1 µM) | 50 (≈ 98.2 µM) | 50 (≈ 98.2 µM) | 50 (≈ 98.2 µM) | CCCCC/C=C\CC[C@H](O)CCCCCCCC(=O)NN1C(=O)CSC1c1ccc(Cl)cc1 (some centres not stated) | 100 (≈ 196 µM) | 100 (≈ 196 µM) | 18.7 | 21.2 | 100 (≈ 196 µM) | > 100 | 13.3 | 50 (≈ 98.2 µM) | 100 (≈ 196 µM) | 100 (≈ 196 µM) | 14.8 | 100 (≈ 196 µM) | diameter of the inhibition zone (DIZ) (Streptococcus pyogenes [13]): 15.5 mm; diameter of the inhibition zone (DIZ) (Klebsiella pneumoniae [16]): 13.9 mm; diameter of the inhibition zone (DIZ) (Pseudomonas aeruginosa [18]): 13.9 mm; diameter of the inhibition zone (DIZ) (Escherichia coli [22]): 14.3 mm
5 | 12.6 (≈ 31.8 µM) | 12.5 (≈ 31.6 µM) | 12.5 (≈ 31.6 µM) | 25 (≈ 63.3 µM) | 12.5 (≈ 31.6 µM) | 12.5 (≈ 31.6 µM) | 25 (≈ 63.3 µM) | 25 (≈ 63.3 µM) | C=CCCCCCCCCC(=O)NN1C(=O)CSC1c1ccc(Cl)cc1 (configuration not stated) | 50 (≈ 127 µM) | 50 (≈ 127 µM) | 22.2 | 27.1 | 50 (≈ 127 µM) | 50 (≈ 127 µM) | 14.6 | 25 (≈ 63.3 µM) | 25 (≈ 63.3 µM) | 25 (≈ 63.3 µM) | 19.2 | 25 (≈ 63.3 µM) | diameter of the inhibition zone (DIZ) (Streptococcus pyogenes [13]): 20.2 mm; diameter of the inhibition zone (DIZ) (Klebsiella pneumoniae [16]): 18.3 mm; diameter of the inhibition zone (DIZ) (Pseudomonas aeruginosa [18]): 22.3 mm; diameter of the inhibition zone (DIZ) (Escherichia coli [22]): 19.8 mm
6 | 12.5 (≈ 35.4 µM) | 12.5 (≈ 35.4 µM) | 6.25 (≈ 17.7 µM) |  | 6.25 (≈ 17.7 µM) |  |  |  | COC1=CC(=O)C[C@@H](C)[C@]12Oc1c(Cl)c(OC)cc(OC)c1C2=O [GRISEOFULVIN] | 25 (≈ 70.9 µM) |  | 27 | 30 |  |  | 20 | 25 (≈ 70.9 µM) | 25 (≈ 70.9 µM) | 12.5 (≈ 35.4 µM) | 24 |  | 
7 | 6.25 (≈ 13.4 µM) | 12.5 (≈ 26.8 µM) | 6.25 (≈ 13.4 µM) | 12.5 (≈ 26.8 µM) | 6.25 (≈ 13.4 µM) | 12.5 (≈ 26.8 µM) | 12.5 (≈ 26.8 µM) | 12.5 (≈ 26.8 µM) | CCCCCCCCCCCCCCCC(=O)NN1C(=O)CSC1c1ccc(Cl)cc1 (configuration not stated) | 25 (≈ 53.5 µM) | 25 (≈ 53.5 µM) | 22.6 | 27.3 | 25 (≈ 53.5 µM) | 50 (≈ 107 µM) | 15.2 | 12.5 (≈ 26.8 µM) | 25 (≈ 53.5 µM) | 25 (≈ 53.5 µM) | 19.5 | 25 (≈ 53.5 µM) | diameter of the inhibition zone (DIZ) (Streptococcus pyogenes [13]): 20.4 mm; diameter of the inhibition zone (DIZ) (Klebsiella pneumoniae [16]): 21.4 mm; diameter of the inhibition zone (DIZ) (Pseudomonas aeruginosa [18]): 27.2 mm; diameter of the inhibition zone (DIZ) (Escherichia coli [22]): 23.3 mm
